Test [1] deals with Sodium-dependent dopamine transporter (Homo sapiens, UniProt Q01959).
Test [2] addresses T1, Alpha-1A adrenergic receptor (Homo sapiens, UniProt P35348).
T1 sequence (P35348 whole entry): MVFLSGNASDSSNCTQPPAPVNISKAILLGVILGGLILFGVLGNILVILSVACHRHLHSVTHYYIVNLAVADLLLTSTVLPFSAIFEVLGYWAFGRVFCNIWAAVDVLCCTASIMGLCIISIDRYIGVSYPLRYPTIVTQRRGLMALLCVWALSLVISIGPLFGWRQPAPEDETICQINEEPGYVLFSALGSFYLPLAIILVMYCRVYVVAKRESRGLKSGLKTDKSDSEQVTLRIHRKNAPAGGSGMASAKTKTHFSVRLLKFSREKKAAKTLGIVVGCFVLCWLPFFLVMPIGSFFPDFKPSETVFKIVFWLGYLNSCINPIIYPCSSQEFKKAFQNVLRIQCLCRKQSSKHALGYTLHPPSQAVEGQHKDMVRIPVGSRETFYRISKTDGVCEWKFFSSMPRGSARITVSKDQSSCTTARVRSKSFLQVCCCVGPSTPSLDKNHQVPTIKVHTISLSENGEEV
It is filed as functional, cell-based.

For test [3], the target named is T2, 5-hydroxytryptamine receptor 1A (Homo sapiens, UniProt P08908).
T2 sequence (P08908 whole entry): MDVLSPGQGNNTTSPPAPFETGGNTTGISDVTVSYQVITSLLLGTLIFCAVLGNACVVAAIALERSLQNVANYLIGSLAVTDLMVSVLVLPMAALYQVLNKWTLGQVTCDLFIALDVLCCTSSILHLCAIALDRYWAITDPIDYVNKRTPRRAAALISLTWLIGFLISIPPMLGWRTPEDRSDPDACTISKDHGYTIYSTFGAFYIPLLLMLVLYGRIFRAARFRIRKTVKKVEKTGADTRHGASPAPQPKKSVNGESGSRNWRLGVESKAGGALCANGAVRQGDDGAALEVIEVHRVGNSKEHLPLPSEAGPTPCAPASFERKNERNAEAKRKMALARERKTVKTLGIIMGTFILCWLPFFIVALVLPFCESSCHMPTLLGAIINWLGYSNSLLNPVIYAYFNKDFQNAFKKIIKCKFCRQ
Format: functional, cell-based.

Test [4] concerns the target T3, B2 bradykinin receptor (Homo sapiens, UniProt P30411).
T3 sequence (P30411 whole entry): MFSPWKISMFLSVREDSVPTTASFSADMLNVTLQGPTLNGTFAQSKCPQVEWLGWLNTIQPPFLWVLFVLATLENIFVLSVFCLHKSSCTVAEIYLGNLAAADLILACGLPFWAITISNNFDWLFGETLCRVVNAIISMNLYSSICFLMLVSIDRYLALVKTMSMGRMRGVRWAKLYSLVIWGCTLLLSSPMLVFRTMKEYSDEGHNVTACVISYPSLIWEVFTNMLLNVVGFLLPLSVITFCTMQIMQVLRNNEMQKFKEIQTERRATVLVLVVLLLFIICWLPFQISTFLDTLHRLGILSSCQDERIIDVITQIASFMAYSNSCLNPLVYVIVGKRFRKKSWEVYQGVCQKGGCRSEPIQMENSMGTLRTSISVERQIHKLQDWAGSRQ

Test [5] deals with T4, Muscarinic acetylcholine receptor M2 (Homo sapiens, UniProt P08172).
T4 sequence (P08172 whole entry): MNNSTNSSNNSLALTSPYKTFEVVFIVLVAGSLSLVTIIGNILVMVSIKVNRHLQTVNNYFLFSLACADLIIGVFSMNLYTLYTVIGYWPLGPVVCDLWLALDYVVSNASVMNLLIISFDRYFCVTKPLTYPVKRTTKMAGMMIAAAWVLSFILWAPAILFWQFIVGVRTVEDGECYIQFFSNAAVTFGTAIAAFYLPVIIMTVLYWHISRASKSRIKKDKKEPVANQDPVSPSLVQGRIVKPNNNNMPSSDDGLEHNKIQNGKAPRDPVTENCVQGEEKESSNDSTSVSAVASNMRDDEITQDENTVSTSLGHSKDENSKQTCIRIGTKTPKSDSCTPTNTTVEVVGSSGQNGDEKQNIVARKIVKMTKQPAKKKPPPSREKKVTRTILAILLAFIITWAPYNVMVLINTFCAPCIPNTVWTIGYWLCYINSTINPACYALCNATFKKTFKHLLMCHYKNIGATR
It is filed as functional, cell-based.

For test [6], the target named is T5, Progesterone receptor (Homo sapiens, UniProt P06401).
T5 sequence (P06401 whole entry): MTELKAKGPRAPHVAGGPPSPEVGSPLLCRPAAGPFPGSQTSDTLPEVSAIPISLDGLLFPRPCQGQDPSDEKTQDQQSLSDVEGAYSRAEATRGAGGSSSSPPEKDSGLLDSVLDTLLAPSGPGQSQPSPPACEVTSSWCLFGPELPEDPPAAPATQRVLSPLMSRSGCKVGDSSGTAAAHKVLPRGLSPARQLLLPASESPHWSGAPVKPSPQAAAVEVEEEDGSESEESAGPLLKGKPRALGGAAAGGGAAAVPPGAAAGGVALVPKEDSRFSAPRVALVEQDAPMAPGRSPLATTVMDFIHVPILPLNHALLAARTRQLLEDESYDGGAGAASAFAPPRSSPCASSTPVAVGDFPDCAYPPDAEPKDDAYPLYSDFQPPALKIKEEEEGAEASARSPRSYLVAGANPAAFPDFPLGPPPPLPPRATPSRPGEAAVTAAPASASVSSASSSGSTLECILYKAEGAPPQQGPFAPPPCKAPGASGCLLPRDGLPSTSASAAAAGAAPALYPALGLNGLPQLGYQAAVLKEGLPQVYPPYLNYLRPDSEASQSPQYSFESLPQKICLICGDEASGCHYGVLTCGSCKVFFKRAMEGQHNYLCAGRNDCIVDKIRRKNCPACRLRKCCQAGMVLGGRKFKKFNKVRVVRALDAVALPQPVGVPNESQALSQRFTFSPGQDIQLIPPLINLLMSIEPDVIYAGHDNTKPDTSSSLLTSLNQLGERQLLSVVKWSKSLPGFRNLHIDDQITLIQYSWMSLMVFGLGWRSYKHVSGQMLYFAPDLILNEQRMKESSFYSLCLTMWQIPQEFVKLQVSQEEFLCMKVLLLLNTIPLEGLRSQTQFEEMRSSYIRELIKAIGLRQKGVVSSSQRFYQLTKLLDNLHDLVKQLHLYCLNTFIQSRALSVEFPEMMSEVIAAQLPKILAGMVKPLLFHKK
It is filed as functional.

Here are results for 19 compounds from ChEMBL document CHEMBL5291721, “A preclinical secondary pharmacology resource illuminates target-adverse drug reaction associations of marketed drugs” (Nat Commun, 2023).

Structures are written as SMILES.

By AC50 is commonly meant the concentration giving half of the maximal activity seen. Low readings indicate greater potency, high ones weaker potency.
Further: assay procedure not described here.

Chain of Sodium-dependent dopamine transporter (Q01959 whole entry): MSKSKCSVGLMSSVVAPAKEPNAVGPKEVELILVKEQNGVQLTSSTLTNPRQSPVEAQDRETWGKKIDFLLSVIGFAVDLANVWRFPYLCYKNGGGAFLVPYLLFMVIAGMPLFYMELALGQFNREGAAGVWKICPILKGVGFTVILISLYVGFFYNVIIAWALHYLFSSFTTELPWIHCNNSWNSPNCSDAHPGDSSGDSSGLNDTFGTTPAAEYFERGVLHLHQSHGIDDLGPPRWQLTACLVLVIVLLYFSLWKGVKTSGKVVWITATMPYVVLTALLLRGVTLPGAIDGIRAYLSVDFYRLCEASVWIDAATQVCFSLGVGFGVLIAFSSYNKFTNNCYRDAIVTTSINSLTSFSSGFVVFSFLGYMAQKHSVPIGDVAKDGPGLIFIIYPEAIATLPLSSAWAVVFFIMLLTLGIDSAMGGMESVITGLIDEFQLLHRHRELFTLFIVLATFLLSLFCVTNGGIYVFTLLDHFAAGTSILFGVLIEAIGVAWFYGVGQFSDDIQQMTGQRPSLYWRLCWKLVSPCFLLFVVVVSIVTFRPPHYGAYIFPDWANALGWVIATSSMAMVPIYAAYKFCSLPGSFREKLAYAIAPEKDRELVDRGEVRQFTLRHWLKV

In the case of `N#Cc1ccccc1-c1cc(-c2ccccn2)cn(-c2ccccc2)c1=O`, the AC50 in test [1], in test [2], in test [3], in test [4], in test [5] and in test [6] was more than 30 µM throughout.

On to `N=C(N)NCCCCCCC(=O)NC(O)C(=O)NCCCCNCCCN` (stereo not given), for which the AC50 in test [1], in test [2], in test [3], in test [4], in test [5] and in test [6] was more than 30 µM throughout.

For `Nc1ccc(C(=O)O)c(O)c1` [AMINOSALICYLIC ACID], the AC50 in test [1], in test [2], in test [3], in test [4], in test [5] and in test [6] was more than 30 µM throughout.

In the case of `CC(=O)OCC(=O)[C@@]1(O)CC[C@H]2[C@@H]3CCC4=CC(=O)CC[C@]4(C)C3=CC[C@@]21C` [ANECORTAVE ACETATE], the AC50 in test [1] is more than 10 µM; in test [2], more than 30 µM; in test [3], more than 10 µM; in test [4], more than 10 µM; in test [5], more than 10 µM; in test [6], more than 30 µM.

Turning to `O=C(CCCN1CCC(n2c(O)nc3ccccc32)CC1)c1ccc(F)cc1` [BENPERIDOL], the AC50 in test [1] is 11 µM; in test [2], 0.0706 µM; in test [3], more than 30 µM; in test [4], more than 30 µM; in test [5], more than 30 µM; in test [6], 29 µM.

As for `CCN(CC)C(=O)C1CN2CCc3cc(OC)c(OC)cc3C2CC1OC(C)=O` (stereo not given) [BENZQUINAMIDE], the AC50 in test [1], in test [2], in test [3], in test [4], in test [5] and in test [6] was more than 30 µM throughout.

On to `COc1cc(OC)c(C(=O)CCCN2CCCC2)c(OC)c1` [BUFLOMEDIL], for which the AC50 in test [1], in test [2], in test [3], in test [4], in test [5] and in test [6] was more than 30 µM in each case.

On to `CS(=O)(=O)OCCCCOS(C)(=O)=O` [BUSULFAN], for which the AC50 in test [1], in test [2], in test [3], in test [4], in test [5] and in test [6] was more than 30 µM each time.

Regarding `CCCCC1(CC)C(=O)NC(=O)NC1=O` [BUTETHAL], the AC50 in test [1], in test [2], in test [3], in test [4], in test [5] and in test [6] was more than 30 µM each time.

For the compound `CCOC(=O)NNc1ccc(N(CC)CC(C)O)nn1` (stereo not given) [CADRALAZINE], the AC50 in test [1], in test [2], in test [3], in test [4], in test [5] and in test [6] was more than 30 µM throughout.

In the case of `C=CC1=C(C(=O)O)N2C(=O)[C@@H](NC(=O)/C(=N\OCC(=O)O)c3csc(N)n3)[C@H]2SC1` [CEFIXIME], the AC50 in test [1], in test [2], in test [3], in test [4], in test [5] and in test [6] was more than 30 µM each time.

As to `CCN(CC)CCOC(=O)c1ccc(N)cc1Cl` [CHLOROPROCAINE], the AC50 in test [1], in test [2], in test [3], in test [4], in test [5] and in test [6] was more than 30 µM in each case.

In the case of `CC(C)(C)NCC(O)c1cc(Cl)c(N)c(Cl)c1` (stereo not given) [CLENBUTEROL], the AC50 in test [1] is 27.1 µM; in test [2] it was more than 30 µM; in test [3], 3.02 µM; in test [4], more than 30 µM; in test [5], more than 30 µM; in test [6] it was more than 30 µM.

As for `CCC(C)(Oc1ccc(C2(c3ccc(OC(C)(CC)C(=O)O)cc3)CCCCC2)cc1)C(=O)O` (stereo not given) [CLINOFIBRATE], the AC50 in test [1], in test [2], in test [3], in test [4], in test [5] and in test [6] was more than 30 µM each time.

Regarding `CCCCC[C@H](O)/C=C/[C@H]1[C@H](O)CC(=O)[C@@H]1C/C=C\CCCC(=O)O` [DINOPROSTONE], the AC50 in test [1] is more than 30 µM; in test [2] it was more than 30 µM; in test [3] it was more than 30 µM; in test [4], more than 30 µM; in test [5], more than 30 µM; in test [6], 4.5 µM.

Turning to `CC(C)c1cc2c(cc1S(=O)(=O)O)[C@@]1(C)CCC[C@@](C)(C(=O)O)[C@@H]1CC2` [ECABET], the AC50 in test [1], in test [2], in test [3], in test [4], in test [5] and in test [6] was more than 30 µM each time.

Regarding `Clc1ccc(C(Cn2ccnc2)OCc2ccc(Sc3ccccc3)cc2)c(Cl)c1` (stereo not given) [FENTICONAZOLE], the AC50 is more than 30 µM in test [2]; more than 30 µM in test [3]; more than 30 µM in test [4]; more than 30 µM in test [5]; 25 µM in test [6].

With `CCCC[C@H](C)C[C@H](O)/C=C/[C@H]1[C@H](O)CC(=O)[C@@H]1CCCC/C=C/C(=O)O` [LIMAPROST], the AC50 in test [1], in test [2], in test [4], in test [5] and in test [6] was more than 30 µM throughout.

For `COc1cc2nccc(Oc3ccc(NC(=O)Nc4cc(C)on4)c(Cl)c3)c2cc1OC` [TIVOZANIB], the AC50 is 2.6 µM in test [1], 19 µM in test [2], more than 30 µM in test [5] and more than 3 µM in test [6].
